The record followed here is patent US12053476B2, “Compounds, compositions and methods for cancer patient stratification and cancer treatment” (BAYER PHARMA AKTIENGESELLSCHAFT, priority 2016, dated 2024).

One series relates to NCI-H1734. In words: Compound library screening in NCI-H1734 and A549 cell lines. In kind it is cell-based, human. Conditions: NCI-H1734 versus A549, 48 h. On the procedure:
To identify anti-cancer compounds with cell-selective cytotoxic activity, an unbiased chemical screen was performed in two lung adenocarcinoma cell lines, A549 and NCI-H1734, both of which harbor oncogenic KRAS mutations and truncating STK11 mutations, and which were TP53 wild type and mutant (R273L), respectively. 1,924 compounds were screened from the Molecular Libraries Small-Molecule Repository validation set in the A549 and NCI-H1734 cell lines at a single concentration of 10 μM in 384-well format in duplicate. As a proxy for cellular viability, ATP content was measured after 48 hours of compound treatment.
1500 NCI-H1734 or 1000 A549 cells were plated in a 384-well plate in 40 μl of RPMI supplemented with 10% Fetal Bovine Serum and 1% Pen/Strep. 24 hours after plating, a compound-library of 1924 small molecules was added at a concentration of 10 μM. Staurosporine was used a positive control for cytotoxicity at a concentration of 10 μM, and DMSO was used a negative control at a concentration of 1%. All compounds were incubated for 48 hours with indicated small molecules. […] Cell viability was assessed by adding 40 μl of a 25% CELLTITERGLO® (Promega) in PBS with a THERMO COMBI™ or multichannel-pipette and incubated for 10 minutes. The luminescence signal was read using a Perkin-Elmer EnVision. Viability percentage was calculated by normalizing to DMSO controls.

Series [1] concerns HeLa cells. The series is described as follows: Caspase activity in HeLa cells (Caspase-Glo). Type of series: cell-based, human. To be noted: 48 h. As to the method:
Thus one aspect of the invention is the use of DNMDP for the treatment of lung adenocarcinoma and cervical cancer.
1000 HeLa cells were plated in 384-well plate in 40 μl of corresponding growth media supplemented with 10% Fetal Bovine Serum. 24 hours after plating, indicated compounds were added at indicated concentrations and incubated for 48 hours. Caspase-Glo from Promega was added according to the manufacturers recommendations and luminescence was determined as described in Compound library screening in NCI-H1734 and A549 cell lines.

In series [2] the test system is HeLa cells. In words: Compound sensitivity testing in cell lines (cell viability, 48 h). In kind it is cell-based, human. To be noted: 48 h. As to the method: 1500 NCI-H1734 or 1000 A549 cells were plated in a 384-well plate in 40 μl of RPMI supplemented with 10% Fetal Bovine Serum and 1% Pen/Strep. 24 hours after plating, a compound-library of 1924 small molecules was added at a concentration of 10 μM. Staurosporine was used a positive control for cytotoxicity at a concentration of 10 μM, and DMSO was used a negative control at a concentration of 1%. All compounds were incubated for 48 hours with indicated small molecules. After 48 hours, 384-well plates were removed from the incubator and allowed to cool to room temperature for 20 minutes. Cell viability was assessed by adding 40 μl of a 25% CELLTITERGLO® (Promega) in PBS with a THERMO COMBI™ or multichannel-pipette and incubated for 10 minutes. The luminescence signal was read using a Perkin-Elmer EnVision. Viability percentage was calculated by normalizing to DMSO controls.
1000 HeLa (DMEM), 1000 A549 (RPMI), 500 MCF-7 (DMEM), 4000 PC3 (F12-K), 1000 NCI-H2122 (RPMI) or 1500 NCI-H1563 (RPMI) cells were plated in a 384-well plate in 40 μl of corresponding growth media supplemented with 10% Fetal Bovine Serum. 24 hours after plating, indicated compounds were added at indicated concentrations and incubated for 48 hours. Cell viability was assessed as described in Compound library screening in NCI-H1734 and A549 cell lines.

The target in a further series is T1, PDE3A and SLFN12 complex (Homo sapiens, UniProt Q14432).
T1 construct: Immunoprecipitation of endogenous PDE3A in HeLa cells treated with DNMDP; host or cells: HeLa
In words: DNMDP-induced PDE3A protein interactions by immunoprecipitation and immunoblotting. Type of series: cell-based. To be noted: HeLa cells, 10 μM, 4 hours. The source says:
Binding of DNMDP altered the composition of interacting proteins that were co-immunoprecipitated with PDE3A. […] These proteins specifically interacted with PDE3A in the presence of DNMDP, and were not observed in the trequinsin treated control, whereas a known PDE3B interactor, abhydrolase domain-containing protein 15 (ABHD15, Chavez et al., Biochem. Biophys. Res. Commun. 342, 1218-1222, 2006), was enriched in the immunoprecipitate from trequinsin-treated cells (FIG. 13C and FIG. 14C). The interaction promoted by DNMDP between PDE3A and both SIRT7 and SLFN12 was validated with affinity reagents. Immunoprecipitation of endogenous PDE3A in HeLa cells treated with DNMDP, but not DMSO or trequinsin, enhanced complex formation of ectopically expressed V5-tagged SIRT7 and SLFN12 with PDE3A, as evidenced by coimmunoprecipitation (FIG. 19). […] Without being bound to theory, PDE3A/SLFN12 complex formation correlated with cell killing (FIGS. 21A-21C).
HeLa cells were transfected with ORF overexpression constructs expressing V5-tagged SIRT7, V5-tagged SLFN12, or V5-tagged GFP. ORF expression constructs were obtained from the TRC (clone IDs: TRCN0000468231, TRCN0000476272, ccsbBroad304_99997). At 72 hours post transfection, cells were treated with 10 μM DNMDP or trequinsin for 4 hours followed by lysis using the ModRipa lysis buffer and immunoprecipitation of PDE3A. […]

In the next series the target is T2, PDE3A(677-1141) (Homo sapiens, UniProt Q14432).
T2 construct: purified PDE3A catalytic domain, PDE3A(677-1141)
In words: Differential scanning fluorimetry (DSF) binding to purified PDE3A catalytic domain. To be noted: 5 μM PDE3A, 100 μM compound. On the procedure:
Binding buffer: 20 mM Hepes pH 7.4, 100 μM TCEP, 1 mM MgCl2, 150 mM NaCl.
In general terms: In DSF a fluorescence change marks the thermal transition of the protein.

The target of the next series is T3, PDE3B (Homo sapiens, UniProt Q13370).
T3 construct: Caliper (ran the assay)
The series is described as follows: PDE3B enzyme inhibition (reported with the 3H-cAMP SPA method). Type of series: biochemical.

A short description of series [3]: In vitro metabolic stability in cryopreserved human hepatocytes. Conditions: 1 μM test compound. In kind it is in vitro ADME. As to the method: Investigation of In Vitro Metabolic Stability in Cryopreserved Human Hepatocytes (Including Calculation of Hepatic In Vivo Blood Clearance (CL) and Maximal Oral Bioavailability (Fmax))
Cryopreserved Hepatocytes (e.g. purchased from Celsis InVitroTechnologies) were briefly thawed, washed with 45 mL pre-warmed in in vitro GRO HT medium and centrifuged for 5 min at 50×g. The cell pellet was resuspended in 5 ml of Krebs-Henseleit […] (KHB). Cell viability was determined by trypan blue exclusion.
For the metabolic stability assay liver cells were distributed in WME containing 5% FCS to glass vials at a density of 1.0×10^6 vital cells/ml. The test compound was added to a final concentration of 1 μM. During incubation, the hepatocyte suspensions were continuously shaken at 580 rpm and aliquots were taken at 2, 8, 16, 30, 45 and 90 min, to which equal volumes of cold methanol were immediately added. Samples were frozen at −20° C. over night, after subsequently centrifuged for 15 minutes at 3000 rpm and the supernatant was analyzed with an Agilent 1290 HPLC-system with LCMS/MS detection.
The half-life of a test compound was determined from the concentration-time plot. From the half-life the intrinsic clearances were calculated. […] The hepatic in vivo blood clearance (CL) and the maximal oral bioavailability (Fmax) was calculated.

Another series concerns SKMEL3. The series is described as follows: Cell proliferation measurement (Cell Titer Glo, 72 h). Type of series: cell-based. To be noted: Homo sapiens, SK-MEL3, SKMEL3, melanoma. On the procedure:
(§1) The antiproliferative activity of the compounds of the general formula (I) was examined in vitro in human cancer cells. For this purpose, 1000 cells were plated in 384-well plates with appropriate growth medium and incubated at 37° C. overnight. After 24 h, cells on one plate (0 h plate) were treated with 30 μl/cavity of CTG solution (Promega Cell Titer Glo (catalogue #G755B and G756B)) and incubated at room temperature for 10 min, and luminescence was measured by means of a VICTOR V (Perkin Elmer), in order to determine cell viability on commencement of treatment. The cells on the test plate were treated with the compounds of the general formula (I) as and incubated at 37° C. for 72 h. The compounds were added to the cells by means of an HP D300 digital dispenser in a 10-step 2,5-fold dilution series. As control, the cells were treated with vehicle (DMSO at 0.3% final concentration). After 72 h, the cells were treated with 30 μl/cavity of CTG solution (Promega Cell Titer Glo (catalogue #G755B and G756B)) and incubated at room temperature for 10 min, and luminescence was measured by means of a VICTOR V (Perkin Elmer), in order to determine cell viability at the end of treatment. The percentage effect on cell growth and the IC50 derived therefrom were determined for each test substance using the values from the 0 h plate (=maximum inhibition) and the DMSO control (=minimum inhibition). The IC50 values were calculated using a 4-parameter fit.

The next series relates to HeLa. The description is as above. In kind it is cell-based. Conditions: Homo sapiens, cervical cancer. As to the method: as §1
A further series has as its system A549. The series is described as above. In kind it is cell-based. To be noted: Homo sapiens, A549, lung adenocarcinoma. On the procedure: as §1
A further series addresses T4, human full length PDE3A (Homo sapiens, UniProt Q14432).
T4 construct: Sf9 cells overexpressing human full length PDE3A (SB Drug Discovery, UK); purchased SB Drug Discovery, UK; host or cells: Sf9
In words: PDE3A enzyme inhibition (3H-cAMP Scintillation Proximity Assay). Type of series: biochemical. Conditions: Sf9 cell extract, 60 min. As to the method: The commercially available ^3H-cAMP Scintillation Proximity Assay (SPA, Perkin Elmer) system was used for enzyme inhibition studies. For the determination of the in vitro effect of test substances on the PDE3A reactions 2 μl of the respective test compound solution in DMSO (serial dilutions) were placed in wells of microtiter plates (Isoplate-96/200W; Perkin Elmer). 50 μl of a dilution of PDE3A cell extract from Sf9 cells overexpressing human full length PDE3A (SB Drug Discovery, UK) in buffer A (50 mM Tris/HCl pH 7.5, 8.3 mM MgCl2, 1.7 mM EDTA, 0.2% BSA) was added. The dilution of the PDE3A cell extract was chosen such that the reaction kinetics was linear and less than 70% of the substrate was consumed (typical dilution 1:5000). The reaction was started by addition of 50 μl (0.025 μCi) of 1:2000 in buffer A w/o BSA diluted substrate [8-^3H] adenosine 3′, 5′-cyclic phosphate (1 μCi/μl; Perkin Elmer). After incubation at room temperature for 60 min, the reaction was stopped by addition of 25 μl of a suspension containing 18 mg/ml yttrium scintillation proximity beads (Perkin Elmer) in water. The microtiter plates were sealed and measured in a Microbeta scintillation counter (PerkinElmer Wallac). IC50 values were determined from sigmoidal curves by plotting percentage PDE3A activity vs log compound concentration.
(In general: Scintillation proximity formats need no separation of bound from free tracer.)

T1 sequence (Q14432 whole entry): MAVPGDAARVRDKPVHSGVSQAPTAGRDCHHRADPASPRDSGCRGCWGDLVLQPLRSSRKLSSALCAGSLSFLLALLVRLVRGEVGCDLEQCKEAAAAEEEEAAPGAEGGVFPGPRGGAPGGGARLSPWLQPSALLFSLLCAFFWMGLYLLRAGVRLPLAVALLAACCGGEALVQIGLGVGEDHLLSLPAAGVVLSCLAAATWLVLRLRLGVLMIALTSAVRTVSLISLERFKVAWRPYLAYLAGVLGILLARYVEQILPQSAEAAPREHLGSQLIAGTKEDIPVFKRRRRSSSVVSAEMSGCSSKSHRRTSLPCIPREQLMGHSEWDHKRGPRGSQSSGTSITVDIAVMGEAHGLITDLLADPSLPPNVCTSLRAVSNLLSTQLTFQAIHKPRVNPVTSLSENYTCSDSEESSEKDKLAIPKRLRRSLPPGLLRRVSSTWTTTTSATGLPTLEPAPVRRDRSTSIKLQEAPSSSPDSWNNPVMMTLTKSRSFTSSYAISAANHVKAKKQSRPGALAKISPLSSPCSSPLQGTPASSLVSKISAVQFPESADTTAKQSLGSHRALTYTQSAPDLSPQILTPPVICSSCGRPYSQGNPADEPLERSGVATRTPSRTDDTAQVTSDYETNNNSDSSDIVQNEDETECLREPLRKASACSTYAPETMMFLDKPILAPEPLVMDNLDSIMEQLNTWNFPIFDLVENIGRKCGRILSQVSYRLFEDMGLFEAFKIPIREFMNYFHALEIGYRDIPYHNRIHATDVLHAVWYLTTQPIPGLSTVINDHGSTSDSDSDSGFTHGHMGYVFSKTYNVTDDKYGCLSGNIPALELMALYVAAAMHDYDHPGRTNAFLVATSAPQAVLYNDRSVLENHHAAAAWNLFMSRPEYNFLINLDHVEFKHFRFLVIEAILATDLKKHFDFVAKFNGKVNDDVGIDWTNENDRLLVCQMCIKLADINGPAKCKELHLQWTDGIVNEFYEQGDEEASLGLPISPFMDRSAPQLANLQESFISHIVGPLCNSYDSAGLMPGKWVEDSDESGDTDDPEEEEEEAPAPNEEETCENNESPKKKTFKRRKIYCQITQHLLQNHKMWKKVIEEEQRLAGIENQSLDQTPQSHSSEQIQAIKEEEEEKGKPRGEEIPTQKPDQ
T1 sequence (Q8IYM2 whole entry partner): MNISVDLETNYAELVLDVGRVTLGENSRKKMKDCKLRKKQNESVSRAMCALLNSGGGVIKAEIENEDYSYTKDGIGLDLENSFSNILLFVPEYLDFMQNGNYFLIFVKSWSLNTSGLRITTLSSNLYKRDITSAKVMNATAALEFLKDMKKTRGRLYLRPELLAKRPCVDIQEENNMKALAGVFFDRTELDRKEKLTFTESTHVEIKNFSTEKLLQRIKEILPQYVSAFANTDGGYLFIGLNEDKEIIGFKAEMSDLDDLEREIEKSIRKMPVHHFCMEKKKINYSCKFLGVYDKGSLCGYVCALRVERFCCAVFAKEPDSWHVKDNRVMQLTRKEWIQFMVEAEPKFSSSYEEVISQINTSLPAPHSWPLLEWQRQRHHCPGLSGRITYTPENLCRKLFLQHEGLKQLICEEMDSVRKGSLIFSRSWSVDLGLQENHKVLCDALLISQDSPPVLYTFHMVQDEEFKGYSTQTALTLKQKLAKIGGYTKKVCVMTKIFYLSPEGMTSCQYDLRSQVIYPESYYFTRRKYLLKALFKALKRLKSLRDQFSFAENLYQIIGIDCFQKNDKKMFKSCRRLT
T4 sequence (Q14432 whole entry): as the sequence (Q14432 whole entry) above
T2 sequence (Q14432 677-1141): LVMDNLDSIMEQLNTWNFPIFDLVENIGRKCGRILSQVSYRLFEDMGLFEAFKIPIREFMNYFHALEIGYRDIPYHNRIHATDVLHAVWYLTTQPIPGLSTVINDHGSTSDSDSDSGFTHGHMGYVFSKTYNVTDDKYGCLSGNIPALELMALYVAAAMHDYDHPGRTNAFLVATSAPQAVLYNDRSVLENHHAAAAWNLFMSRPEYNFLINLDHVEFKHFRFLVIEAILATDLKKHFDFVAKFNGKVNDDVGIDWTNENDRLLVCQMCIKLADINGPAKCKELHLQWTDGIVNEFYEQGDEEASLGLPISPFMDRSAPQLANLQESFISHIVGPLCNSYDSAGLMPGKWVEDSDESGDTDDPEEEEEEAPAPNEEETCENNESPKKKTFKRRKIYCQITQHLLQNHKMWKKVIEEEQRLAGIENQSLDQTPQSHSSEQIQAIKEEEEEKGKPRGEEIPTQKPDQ
T3 sequence (Q13370 whole entry, species assumed): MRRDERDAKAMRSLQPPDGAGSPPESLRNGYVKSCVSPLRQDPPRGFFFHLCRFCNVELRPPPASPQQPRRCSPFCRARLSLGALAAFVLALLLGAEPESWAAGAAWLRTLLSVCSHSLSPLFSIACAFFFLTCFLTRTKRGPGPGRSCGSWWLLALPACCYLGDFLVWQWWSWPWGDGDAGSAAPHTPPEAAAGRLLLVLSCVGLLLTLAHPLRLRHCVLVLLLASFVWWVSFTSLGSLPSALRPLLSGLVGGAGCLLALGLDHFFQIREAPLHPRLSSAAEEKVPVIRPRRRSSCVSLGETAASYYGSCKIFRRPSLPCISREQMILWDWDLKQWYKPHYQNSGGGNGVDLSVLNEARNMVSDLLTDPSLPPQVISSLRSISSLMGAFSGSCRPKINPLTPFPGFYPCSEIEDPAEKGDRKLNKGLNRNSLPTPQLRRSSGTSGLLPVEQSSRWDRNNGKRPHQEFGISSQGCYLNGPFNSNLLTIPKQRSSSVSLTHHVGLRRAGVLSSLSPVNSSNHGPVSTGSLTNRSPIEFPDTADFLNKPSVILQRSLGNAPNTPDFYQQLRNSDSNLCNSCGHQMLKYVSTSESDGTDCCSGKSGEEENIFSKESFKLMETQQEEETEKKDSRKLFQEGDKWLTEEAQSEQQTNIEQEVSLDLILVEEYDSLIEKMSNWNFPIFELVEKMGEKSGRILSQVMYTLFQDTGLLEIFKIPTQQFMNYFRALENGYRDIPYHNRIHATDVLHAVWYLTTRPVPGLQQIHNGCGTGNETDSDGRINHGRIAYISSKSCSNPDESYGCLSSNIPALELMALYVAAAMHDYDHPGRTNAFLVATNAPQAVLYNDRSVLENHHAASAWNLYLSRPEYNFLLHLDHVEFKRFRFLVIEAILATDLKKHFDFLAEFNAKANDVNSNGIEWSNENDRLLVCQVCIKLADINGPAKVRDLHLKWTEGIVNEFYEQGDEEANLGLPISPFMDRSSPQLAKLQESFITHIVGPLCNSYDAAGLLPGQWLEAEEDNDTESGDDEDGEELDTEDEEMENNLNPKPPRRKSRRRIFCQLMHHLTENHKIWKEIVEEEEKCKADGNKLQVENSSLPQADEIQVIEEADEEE

In general, Tm refers to the temperature at which the thermal transition is half complete. As for `CCN(CC)c1ccc(C2=NNC(=O)CC2C)cc1[N+](=O)[O-]` (stereo not drawn) [DNMDP, 6-(4-(diethylamino)-3-nitrophenyl)-5-methyl-4,5-dihydropyridazin-3(2H)-one], in the series on NCI-H1734, the “selective toxicity in dose-response retest (in words)” value is recorded as “specifically toxic to the NCI-H1734 cell line”. Besides, in the series with HeLa cells [1], the “caspase activity (apoptosis)” value is “Caspase activity was detected”. For the same compound, the “EC70 HeLa cell viability” value with HeLa cells [2] turned out to be 30 nM. Further, on PDE3A and SLFN12 complex, the “PDE3A and SLFN12 complex formation” value was “induced PDE3A and SFLN12 complex formation”. For the same compound, the midpoint of thermal melting (Tm) at PDE3A(677-1141) is 58.4 ± 0.0 °C.

The term IC50 denotes the concentration needed to halve the response being measured. A lower IC50 goes with higher potency. The EC50 is the concentration needed to bring the measured effect to its halfway point. With `C[C@@H]1CC(=O)NN=C1c1cc(F)c(N2CCOCC2)c(Cl)c1` [Compound 6, (5R)-6-[3-chloro-5-fluoro-4-(morpholin-4-yl)phenyl]-5-methyl-4,5-dihydropyridazin-3(2H)-one], the IC50 against PDE3B was 3.4 nM; with SKMEL3 it was 0.441 nM; in the series on HeLa it was 0.327 nM; with A549 it was over 600 nM; against human full length PDE3A, 2.4 nM. This compound also showed an EC50 with HeLa cells [2] (Homo sapiens) of 1.1 nM. Besides, the “mean metabolic stability (Fmax)” value in series [3] is recorded as 93%.
